Experiment [1] in a line: Concentration required to reduce viability of mock-infected MT-4 cells. It is filed as functional. To be noted: Homo sapiens, MT4.
The test system of experiment [2] is Human immunodeficiency virus 1. The experiment is described as follows: Effective concentration required for 50% protection of MT-4 cells against the cytopathic effect of HIV-1. It is filed as functional, organism-based. The note with it: Human immunodeficiency virus 1, MT4.
The test system of experiment [3] is MT4. Briefly: Ratio of the EC50 against HIV-1 infected MT-4 cells and CC50 against mock infected MT-4 cells. It is filed as functional.
For experiment [4], the system named is MT4. The experiment is described as follows: Concentration required to inhibit replication of HIV-2 LAV-2rod strain in MT-4 cells. The experiment is classed as functional, cell-based. To be noted: Homo sapiens.
The nature of experiment [5]: Concentration required to reduce viability of Mock infected PBL (peripheral blood lymphocytes) cells. It is filed as functional. To be noted: Homo sapiens.
A short description of experiment [6]: Concentration required to inhibit replication of HIV-1 HTLV-IIIB strain in PBL (peripheral blood lymphocytes) cells. The experiment is classed as functional, cell-based. To be noted: Homo sapiens.
Experiment [7] deals with MT4. The experiment is described as follows: Concentration to required to reduce viability of Mock infected MT-4 cells. It is filed as functional. The note with it: Homo sapiens.
In experiment [8] the test system is MT4. The experiment is described as follows: Cytotoxicity to required to reduce viability of Mock infected MT-4 cells of LAV-2rod strain against HIV-2 replication. To be noted: Homo sapiens. It is filed as functional.

Where only a bound is given, the exact number is not on record here.

As to `Cc1c(O)nc(O)nc1Sc1ccccc1`, the CC50 – broadly, the concentration at which the toxic effect on the cells reaches its halfway point – in experiment [1] was 250 µM. Also, the EC50 – broadly, the concentration needed to bring the measured effect to its halfway point – in experiment [2] is over 250 µM. The Selectivity index with MT4 [3] is recorded as under 1.
With `CCc1c(Sc2ccccc2)n(COCCc2ccccc2)c(=S)[nH]c1=O`, the CC50 in experiment [1] was over 20 µM. Further, in experiment [2], the EC50 worked out at 0.091 µM. Besides, the Selectivity index with MT4 [3] is reported as over 220.
The like results for `CCc1c(Sc2ccccc2)n(CC(C)C)c(=S)[nH]c1=O` were, in that order, over 100 µM, 0.22 µM and over 455.
`CCn1c(Sc2ccccc2)c(C)c(=O)[nH]c1=O`: the CC50 in experiment [1] was 94 µM. For the same compound, the EC50 in experiment [2] was determined as 2.2 µM. In the experiment with MT4 [3], the Selectivity index worked out at 43.
As to `CCc1c(Sc2ccccc2)n(COC2CCCCC2)c(=O)[nH]c1=O`, in experiment [1], the CC50 was over 100 µM. This compound also had an EC50 in experiment [2] of 4 µM. In addition, in the experiment with MT4 [3], the Selectivity index is on record as over 25.
Consider `CCOCn1c(Sc2ccccc2)c(CC)c(=O)[nH]c1=O`, for which the results for the EC50 (in the experiment with MT4 [4]; in experiment [2]; in experiment [6]) were over 146 µM, 0.019 µM and 0.011 µM, respectively. Moreover, the CC50 in experiment [5] was determined as 93 µM; with MT4 [7], 146 µM. Moreover, in the experiment with MT4 [3], the Selectivity index was 8500.
`CCc1c(Sc2ccccc2)n(COC2CCCCC2)c(=S)[nH]c1=O`: in experiment [1], half-maximal cytotoxicity (CC50) was put at 223 µM. This compound also returned an EC50 in experiment [2] of 1.6 µM. For the same compound, the Selectivity index with MT4 [3] came to 139.
For `CCOCn1c(Sc2ccccc2)c(CC)c(=O)[nH]c1=S`, the CC50 in experiment [1] turned out to be 81 µM; in experiment [5], 35 µM; in the experiment with MT4 [7], 50 µM. Also, the values for the EC50 (with MT4 [4]; in experiment [2]; in experiment [6]) were over 50 µM, 0.026 µM and 0.013 µM, respectively. Besides, the Selectivity index in the experiment on MT4 [3] was 3120.
Take `CCOCn1c(Sc2ccccc2)c(C2CC2)c(=O)[nH]c1=S`: in experiment [1], half-maximal cytotoxicity (CC50) was put at 46 µM. This compound also returned a concentration for a half-maximal effect (EC50) in experiment [2] of 0.095 µM. Further, the Selectivity index with MT4 [3] was 484.
As for `CC(C)c1c(Sc2ccccc2)n(COCc2ccccc2)c(=O)[nH]c1=O`, the CC50 in experiment [1] is over 20 µM. Besides, the EC50 in experiment [2] was determined as 0.0027 µM. In addition, the Selectivity index in the experiment on MT4 [3] was over 7410.
`CCCCOCn1c(Sc2ccccc2)c(C)c(=O)[nH]c1=O` registered a CC50 in experiment [1] of 83 µM. For the same compound, the EC50 in experiment [2] stood at 4.7 µM. Besides, the Selectivity index in the experiment with MT4 [3] is 18.
`Cc1c(Sc2ccccc2)n(C)c(=O)[nH]c1=O` displayed a CC50 in experiment [1] of 150 µM. In addition, the EC50 in experiment [2] is over 150 µM. In addition, the Selectivity index with MT4 [3] is given as under 1.
In the case of `Cc1cn([C@H]2C[C@H](N=[N+]=[N-])[C@@H](CO)O2)c(=O)[nH]c1=O` [ZIDOVUDINE], the EC50 worked out at 0.0028 µM in the experiment on MT4 [4] and 0.0014 µM in experiment [6]. Also, the CC50 in experiment [5] amounted to 26 µM; in the experiment with MT4 [7] it was 7.8 µM. In addition, the Selectivity index in the experiment on MT4 [3] is on record as 2600.
As to `CCOCn1c(Sc2cc(C)cc(C)c2)c(CC)c(=O)[nH]c1=O`, the CC50 is over 100 µM with MT4 [8], over 100 µM in experiment [1] and 56 µM in experiment [5]. Moreover, the concentration for a half-maximal effect (EC50) in the experiment with MT4 [4] is over 100 µM; in experiment [2] it was 0.0054 µM; in experiment [6], 0.0018 µM. Also, the Selectivity index in the experiment with MT4 [3] was over 18500.
The compound `CCc1c(Sc2ccccc2)n(COCC2CCCCC2)c(=S)[nH]c1=O` yielded a CC50 in experiment [1] of over 100 µM. Besides, in experiment [2], the EC50 came out at 0.35 µM. Also, in the experiment with MT4 [3], the Selectivity index was over 286.
`COCCOCn1c(Sc2ccccc2)c(C)c(=O)[nH]c1=O` showed a 50% effective concentration (EC50) in experiment [2] of 8.7 µM. Besides, in the experiment on MT4 [3], the Selectivity index came out at 34.
`Cc1c(Sc2ccccc2)n(COCC[Si](C)(C)C)c(=O)[nH]c1=O`: the CC50 in experiment [1] is 32 µM. Moreover, in experiment [2], the EC50 is over 32 µM. For the same compound, the Selectivity index with MT4 [3] is on record as under 1.
Take `CCOCn1c(Sc2ccccc2)c(C(C)C)c(=O)[nH]c1=S`: the CC50 in experiment [1] is over 100 µM. For the same compound, in experiment [2], the EC50 amounted to 0.014 µM. For the same compound, the Selectivity index with MT4 [3] is over 7140.
Consider `CCc1c(Sc2ccccc2)n(COCCc2ccccc2)c(=O)[nH]c1=O`, for which the midpoint of cytotoxicity in experiment [1], the CC50, lay at 38 µM. In experiment [2], this compound showed an EC50 of 0.096 µM. Moreover, in the experiment with MT4 [3], the Selectivity index amounted to 396.
The like results for `CCCCCOCCOCn1c(Sc2ccccc2)c(C)c(=O)[nH]c1=O` were, in that order, 55 µM, over 55 µM and under 1.
In experiment [1], `CCc1c(Sc2ccccc2)n(COC(C)C)c(=O)[nH]c1=O` returned a CC50 of 143 µM. For the same compound, the EC50 in experiment [2] was 0.34 µM. Also, the Selectivity index in the experiment with MT4 [3] is listed as 421.
`CCOCn1c(Sc2cc(C)cc(C)c2)c(CC)c(=O)[nH]c1=S`: the CC50 was over 100 µM in experiment [1], 33 µM in experiment [5] and over 100 µM in the experiment with MT4 [7]. Besides, the EC50 in the experiment with MT4 [4] is over 100 µM; in experiment [2], 0.0044 µM; in experiment [6], 0.0022 µM. Also, in the experiment on MT4 [3], the Selectivity index is recorded as over 22700.
Take `CCOCn1c(Sc2ccccc2)c(C2CC2)c(=O)[nH]c1=O`: half-maximal cytotoxicity in experiment [1] (CC50) was put at 224 µM. Also, the EC50 in experiment [2] is 0.1 µM. Further, the Selectivity index with MT4 [3] worked out at 2240.
In experiment [1], `COCn1c(Sc2ccccc2)c(C)c(=O)[nH]c1=O` had a CC50 of 244 µM. The same compound yielded an EC50 in experiment [2] of 2.1 µM. Moreover, the Selectivity index in the experiment with MT4 [3] is recorded as 116.
The like results for `CCOCn1c(Sc2cc(Cl)cc(Cl)c2)c(CC)c(=O)[nH]c1=S` were, in that order, 45 µM, 0.013 µM and 3460.
The compound `CCOCn1c(Sc2ccccc2)c(C)c(=O)[nH]c1=O` returned an EC50 in experiment [2] of 0.33 µM. Also, in the experiment on MT4 [3], the Selectivity index is listed as 700.
In turn, `CCOCn1c(Sc2cc(Cl)cc(Cl)c2)c(CC)c(=O)[nH]c1=O` yielded a CC50 in experiment [1] of 45 µM. Besides, the response in experiment [2] was half-maximal at 0.0074 µM (EC50). Also, the Selectivity index in the experiment with MT4 [3] came to 6080.
`CCc1c(Sc2ccccc2)n(COCc2ccccc2)c(=S)[nH]c1=O`: the cytotoxic concentration (CC50) was over 100 µM in experiment [1], 28 µM in experiment [5] and over 100 µM with MT4 [7]. Also, the EC50 in the experiment with MT4 [4] is over 100 µM; in experiment [2], 0.0078 µM; in experiment [6], 0.0037 µM. Also, the Selectivity index with MT4 [3] is over 12800.
Turning to `CCc1c(Sc2ccccc2)n(COCC2CCCCC2)c(=O)[nH]c1=O`, the midpoint of cytotoxicity in experiment [1], the CC50, lay at 17 µM. The response in experiment [2] was half-maximal at 0.45 µM (EC50). In addition, the Selectivity index with MT4 [3] is 38.
The like results for `CC(C)c1c(Sc2ccccc2)n(COCc2ccccc2)c(=S)[nH]c1=O` were, in that order, over 20 µM, 0.0068 µM and over 2940.
Take `CCc1c(Sc2ccccc2)n(COCc2ccc(Cl)cc2)c(=S)[nH]c1=O`: the CC50 in experiment [1] is over 20 µM. In experiment [2], this compound returned an EC50 of 0.012 µM. Also, in the experiment on MT4 [3], the Selectivity index is over 1670.
Consider `CCc1c(Sc2ccccc2)n(COCc2ccccc2)c(=O)[nH]c1=O`, for which the results for the EC50 (in the experiment with MT4 [4]; in experiment [2]; in experiment [6]) were over 30 µM, 0.0059 µM and 0.0015 µM, respectively. Moreover, the values for the half-maximal cytotoxic concentration (CC50) (in experiment [5]; with MT4 [7]) were 43 µM and 30 µM, respectively. Moreover, in the experiment with MT4 [3], the Selectivity index came out at 5800.
Take `CCCCn1c(Sc2ccccc2)c(C)c(=O)[nH]c1=O`: it took 89 µM to reach half-maximal cytotoxicity in experiment [1] (CC50). For the same compound, a half-maximal response in experiment [2] (EC50) required 1.2 µM. In the experiment on MT4 [3], the Selectivity index worked out at 74.
The compound `CCc1c(Sc2ccccc2)n(COCc2ccc(C)cc2)c(=S)[nH]c1=O` showed a CC50 in experiment [1] of over 20 µM. In experiment [2], this compound gave an EC50 of 0.078 µM. Also, the Selectivity index in the experiment on MT4 [3] is over 256.
The like results for `CCCOCn1c(Sc2ccccc2)c(C)c(=O)[nH]c1=O` were, in that order, 147 µM, 3.6 µM and 41.
The like results for `CCc1c(Sc2cc(C)cc(C)c2)n(COCc2ccccc2)c(=O)[nH]c1=O` were, in that order, over 20 µM, 0.0032 µM and over 6250.
The like results for `CCOCn1c(Sc2ccccc2)c(C(C)C)c(=O)[nH]c1=O` were, in that order, 106 µM, 0.012 µM and 8830.
Regarding `CCc1c(Sc2cc(C)cc(C)c2)n(COCc2ccccc2)c(=S)[nH]c1=O`, the CC50 in experiment [1] is over 20 µM. Further, in experiment [2], the EC50 worked out at 0.0069 µM. The Selectivity index in the experiment on MT4 [3] is listed as over 2900.
With `Cc1c(Sc2ccccc2)n(COCCOCc2ccccc2)c(=O)[nH]c1=O`, the EC50 in experiment [2] was over 20 µM. Besides, the Selectivity index with MT4 [3] is on record as 2.3.
On to `Cc1c(Sc2ccccc2)n(COCc2ccccc2)c(=O)[nH]c1=O`, for which, in experiment [2], the EC50 was 0.088 µM. For the same compound, in the experiment on MT4 [3], the Selectivity index was 1080.
